Experimental data published in ChEMBL document CHEMBL1151572, “Non-glycosidic/non-aminoalkyl-substituted indolocarbazoles as inhibitors of protein kinase C” (Bioorg Med Chem Lett, 1993).
pIC50: −log10 of the molar value.

Assays:
Protein kinase C (PKC) = test: In vitro for inhibitory activity against protein kinase C from rat brain
[1] = biological target: T1, cGMP-dependent protein kinase 1 (Bos taurus, UniProt P00516); test: In vitro for inhibitory activity against cGMP-dependent protein kinase from bovine lung (G-kinase)
T1 sequence (P00516 whole entry): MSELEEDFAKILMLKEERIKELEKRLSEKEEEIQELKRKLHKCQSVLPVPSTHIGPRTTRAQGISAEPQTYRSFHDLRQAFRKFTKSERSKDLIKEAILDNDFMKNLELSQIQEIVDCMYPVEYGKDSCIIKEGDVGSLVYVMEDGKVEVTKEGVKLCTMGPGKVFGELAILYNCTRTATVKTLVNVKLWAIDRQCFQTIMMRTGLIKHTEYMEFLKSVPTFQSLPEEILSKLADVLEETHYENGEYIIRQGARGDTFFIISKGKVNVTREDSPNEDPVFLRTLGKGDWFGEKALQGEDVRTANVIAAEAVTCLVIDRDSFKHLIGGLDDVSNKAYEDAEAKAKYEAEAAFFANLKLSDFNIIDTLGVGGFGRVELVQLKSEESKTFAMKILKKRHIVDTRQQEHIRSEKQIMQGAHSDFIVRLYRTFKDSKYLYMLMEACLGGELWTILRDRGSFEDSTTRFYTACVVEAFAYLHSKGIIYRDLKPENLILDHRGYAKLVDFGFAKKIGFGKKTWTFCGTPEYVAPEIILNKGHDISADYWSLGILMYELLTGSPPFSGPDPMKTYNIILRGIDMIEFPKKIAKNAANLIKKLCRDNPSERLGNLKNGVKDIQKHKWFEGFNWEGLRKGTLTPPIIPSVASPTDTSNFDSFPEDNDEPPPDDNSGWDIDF

[2] = biological target: Myosin light chain kinase, smooth muscle (Gallus gallus, UniProt P11799); test: In vitro for inhibitory activity against myosin light-chain kinase from chicken gizzard (M-kinase)
Sequence of Myosin light chain kinase, smooth muscle (P11799 whole entry): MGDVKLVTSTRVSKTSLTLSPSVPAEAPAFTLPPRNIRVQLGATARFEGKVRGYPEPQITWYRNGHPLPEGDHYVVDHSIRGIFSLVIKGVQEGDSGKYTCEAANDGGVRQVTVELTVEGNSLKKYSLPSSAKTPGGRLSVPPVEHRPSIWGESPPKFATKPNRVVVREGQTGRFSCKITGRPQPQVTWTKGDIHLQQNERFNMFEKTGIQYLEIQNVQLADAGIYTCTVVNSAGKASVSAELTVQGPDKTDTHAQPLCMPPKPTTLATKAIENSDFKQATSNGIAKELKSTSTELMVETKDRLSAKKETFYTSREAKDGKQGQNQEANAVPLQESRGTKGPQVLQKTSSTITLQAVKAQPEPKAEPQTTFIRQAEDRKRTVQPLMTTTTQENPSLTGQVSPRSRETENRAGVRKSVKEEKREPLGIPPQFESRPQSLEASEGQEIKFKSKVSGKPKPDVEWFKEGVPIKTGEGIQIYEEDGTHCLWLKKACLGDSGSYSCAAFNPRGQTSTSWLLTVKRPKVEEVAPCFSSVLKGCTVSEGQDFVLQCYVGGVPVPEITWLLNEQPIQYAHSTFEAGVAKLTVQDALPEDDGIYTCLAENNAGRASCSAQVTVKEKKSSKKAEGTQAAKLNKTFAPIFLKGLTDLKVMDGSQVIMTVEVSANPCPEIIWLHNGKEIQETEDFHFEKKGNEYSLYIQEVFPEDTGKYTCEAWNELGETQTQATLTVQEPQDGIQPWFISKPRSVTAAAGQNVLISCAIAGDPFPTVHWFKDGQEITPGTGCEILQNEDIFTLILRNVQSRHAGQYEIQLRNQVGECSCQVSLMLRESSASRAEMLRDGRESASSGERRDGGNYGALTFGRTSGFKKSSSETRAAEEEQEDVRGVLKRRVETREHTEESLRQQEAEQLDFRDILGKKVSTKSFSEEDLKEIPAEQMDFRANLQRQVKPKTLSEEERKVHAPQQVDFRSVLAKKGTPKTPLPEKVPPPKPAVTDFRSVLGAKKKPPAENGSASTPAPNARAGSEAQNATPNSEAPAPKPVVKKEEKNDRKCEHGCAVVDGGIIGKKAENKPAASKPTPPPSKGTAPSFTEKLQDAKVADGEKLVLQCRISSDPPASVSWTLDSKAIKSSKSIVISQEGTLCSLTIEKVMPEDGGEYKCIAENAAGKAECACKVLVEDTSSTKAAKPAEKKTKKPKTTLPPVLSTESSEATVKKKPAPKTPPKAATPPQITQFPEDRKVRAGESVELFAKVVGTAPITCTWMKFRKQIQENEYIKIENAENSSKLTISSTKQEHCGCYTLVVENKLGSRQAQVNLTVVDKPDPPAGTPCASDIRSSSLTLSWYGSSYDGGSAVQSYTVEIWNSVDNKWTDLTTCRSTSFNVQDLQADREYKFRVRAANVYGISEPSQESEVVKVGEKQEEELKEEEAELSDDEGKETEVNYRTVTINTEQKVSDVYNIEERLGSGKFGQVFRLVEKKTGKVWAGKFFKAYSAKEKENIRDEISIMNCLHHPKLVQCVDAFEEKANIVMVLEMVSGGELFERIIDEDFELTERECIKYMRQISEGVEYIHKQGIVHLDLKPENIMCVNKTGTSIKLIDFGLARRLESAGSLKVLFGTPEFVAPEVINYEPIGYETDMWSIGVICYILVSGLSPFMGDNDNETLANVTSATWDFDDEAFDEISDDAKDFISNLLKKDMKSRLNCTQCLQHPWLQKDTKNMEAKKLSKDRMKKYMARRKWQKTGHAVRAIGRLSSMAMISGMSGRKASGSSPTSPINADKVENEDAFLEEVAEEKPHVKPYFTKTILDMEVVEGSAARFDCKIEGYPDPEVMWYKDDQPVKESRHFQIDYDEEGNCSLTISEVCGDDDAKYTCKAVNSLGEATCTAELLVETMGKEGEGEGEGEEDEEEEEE

[3] = biological target: cAMP-dependent protein kinase catalytic subunit alpha (Bos taurus, UniProt P00517); test: In vitro for inhibitory activity against cAMP-dependent protein kinase from bovine heart (A-kinase)
Splenocyte = test: In vitro for inhibitory activity against tyrosine specific protein kinase from murine spleen cells (T-kinase); format: functional, cell-based; details: Mus musculus

Structure (SMILES) | IC50 (Protein kinase C (PKC)) | pIC50 [1] | pIC50 [2] | pIC50 [3] | pIC50 (Splenocyte)
O=C1NCc2c1c1c3ccccc3[nH]c1c1c2c2ccccc2n1CC(O)CO (configuration not stated) | 0.099 µM | 6.55 | 6.41 | 5.32 | –
N#CCCn1c2ccccc2c2c3c(c4c5ccccc5[nH]c4c21)C(=O)NC3 | 0.075 µM | 6.49 | 6.30 | < 5.00 | –
CC(C)=CCn1c2ccccc2c2c3c(c4c5ccccc5[nH]c4c21)C(=O)NC3 | 3.5 µM | – | – | – | –
CCn1c2ccccc2c2c3c(c4c5ccccc5n(CC)c4c21)C(=O)NC3 | 0.2 µM | 6.15 | 5.92 | < 5.00 | –
CCn1c2ccccc2c2c3c(c4c5ccccc5n(CCC#N)c4c21)CNC3=O | 0.027 µM | 5.89 | 5.80 | 5.20 | < 5.00
Cn1c2ccccc2c2c3c(c4c5ccccc5[nH]c4c21)C(=O)NC3 | 0.52 µM | 6.40 | 5.96 | < 5.00 | –
O=C(O)CCn1c2ccccc2c2c3c(c4c5ccccc5[nH]c4c21)C(=O)NC3 | 0.59 µM | 4.68 | 5.74 | < 4.00 | –
NC(=O)CCn1c2ccccc2c2c3c(c4c5ccccc5[nH]c4c21)C(=O)NC3 | 0.11 µM | – | 7.09 | – | –
CN1Cc2c(c3c4ccccc4n(C)c3c3c2c2ccccc2n3CCC#N)C1=O | > 30 µM | < 4.52 | < 5.00 | < 4.52 | < 5.00
CN[C@@H]1C[C@H]2O[C@@](C)([C@@H]1OC)n1c3ccccc3c3c4c(c5c6ccccc6n2c5c31)C(=O)NC4 [STAUROSPORINE] | – | – | – | – | 6.40
O=C1NCc2c1c1c3ccccc3[nH]c1c1[nH]c3ccccc3c21 [STAUROSPORINONE] | 0.68 µM | 6.19 | 5.55 | < 5.00 | –

The remaining lines, values ahead:

IC50 (Protein kinase C (PKC)) | pIC50 [1] | pIC50 [2] | pIC50 [3] | pIC50 (Splenocyte) | Structure (SMILES)
8.1 µM | – | – | – | – | CCCn1c2ccccc2c2c3c(c4c5ccccc5n(CCC)c4c21)C(=O)NC3
0.45 µM | 5.26 | 5.24 | < 4.00 | – | Cn1c2ccccc2c2c3c(c4c5ccccc5n(C)c4c21)C(=O)NC3
0.032 µM | 6.15 | 6.36 | 5.62 | < 5.00 | Cn1c2ccccc2c2c3c(c4c5ccccc5n(CC(F)F)c4c21)CNC3=O
0.1 µM | 5.29 | 4.96 | < 4.52 | < 5.00 | CCCn1c2ccccc2c2c3c(c4c5ccccc5n(C)c4c21)C(=O)NC3
0.025 µM | – | 6.35 | – | – | Cn1c2ccccc2c2c3c(c4c5ccccc5n(CCCN=[N+]=[N-])c4c21)CNC3=O
– | – | – | < 4.00 | < 5.00 | Cn1c2ccccc2c2c3c(c4c5ccccc5n(CCC#N)c4c21)CNC3=O [GO-6976]
